Laboratory results as given in patent publication US8299096B2, “Method for treating pulmonary diseases using rho kinase inhibitor compounds” (priority 2008, dated 2012).

System: ovalbumin-sensitized mice
Assay: Prevention of airway hyperreactivity development, anti-inflammatory dosing paradigm (Penh)
Format: in vivo, mouse
Conditions: anti-inflammatory dosing paradigm

| SMILES | Efficacy using the anti-inflammatory dosing paradigm |
| --- | --- |
| CC(C)(C)NCC(O)c1ccc(O)c(CO)c1 (stereo not shown) [Salbutamol, reference compound] | ineffective |

System: not listed separately
Assay: Compound plasma concentrations in mice at 15 min post administration
Format: in vivo, mouse
Conditions: mouse; mice, plasma, 15 min post administration (oral dosing), mean of n = 3 mice; read-out: Plasma Mean Concentration
Description: Additionally, compound concentrations were determined in the plasma and lungs of male, ovalbumin-sensitized, Balb/c mice from a murine model of asthma. Test compounds were formulated in water or 1% polysorbate 80 and dosed at 15 μmol/kg for intraperitoneal (IP) or oral (PO) administration or formulated for intratracheal (IT) administration and dosed at 5 μmol/kg, which directly targets the lungs. Following completion of the in vivo study, mice were euthanized and blood and plasma collected approximately 2.5-3 hours post administration of test compound for bronchodialator (BD) studies and 24 hours post administration for anti-inflamatory (AI) studies. Lungs were homogenized in Matrix A lysing tubes using a FastPrep 24 tissue and cell homogenizer (MP Biomedicals, Solon, Ohio). Both plasma samples and lung extracts were assayed for compound concentrations using an on-line, solid phase extraction LC/MS/MS system.

| concentration at 15 min [nM] | SMILES |
| --- | --- |
| 1770 | Fc1ccc(CN2CCC[C@H](Nc3ccc4[nH]ncc4c3)C2)cc1F [Compound 1.072] |
| 1020 | Cc1ccc(CN2CCC[C@H](Nc3ccc4[nH]ncc4c3)C2)cc1 [Compound 1.078] |
| 5.9 | OCCOc1cccc(CN2CCC[C@H](Nc3ccc4[nH]ncc4c3)C2)c1 [Compound 1.090] |
| 314 | OCCOc1cccc(CN2CCC[C@@H](Nc3ccc4[nH]ncc4c3)C2)c1 [Compound 1.092] |
| 441 | NC(=O)Cn1ccc2ccc(CN3CCC[C@@H](Nc4ccc5[nH]ncc5c4)C3)cc21 [Compound 1.106] |
| 211 | NC(=O)Cn1ccc2ccc(CN3CCC[C@H](Nc4ccc5[nH]ncc5c4)C3)cc21 [Compound 1.107] |
| 792 | c1ccc(CN2CCC[C@@H](Nc3ccc4[nH]ncc4c3)C2)cc1 [Compound 1.110] |
| 980 | O=C(COc1cccc(CN2CCC[C@@H](Nc3ccc4[nH]ncc4c3)C2)c1)N1CCOCC1 [Compound 1.127] |
| 330 | Brc1ccc(CN2CCC[C@H](Nc3ccc4[nH]ncc4c3)C2)cc1 [Compound 1.142] |
| 274 | c1cc2cc(CN3CCC[C@@H](Nc4ccc5[nH]ncc5c4)C3)ccc2[nH]1 [Compound 1.143] |
| 109 | Oc1cccc(CN2CCC[C@@H](Nc3ccc4[nH]ncc4c3)C2)c1 [Compound 1.145] |
| 1260 | Fc1ccc(CN2CCC[C@@H](Nc3ccc4[nH]ncc4c3)C2)cc1 [Compound 1.146] |
| 479 | Cc1ccc(CN2CCC[C@H](Nc3ccc4[nH]ncc4c3)C2)cc1O [Compound 1.151] |
| 32.4 | Cc1ccc(CN2CCC[C@H](Nc3ccc4[nH]ncc4c3)C2)c(C)c1 [Compound 1.155] |
| 250 | CSc1cccc(CN2CCC[C@@H](Nc3ccc4[nH]ncc4c3)C2)c1 [Compound 1.159] |
| 588 | CCSc1ccc(CN2CCC[C@H](Nc3ccc4[nH]ncc4c3)C2)cc1 [Compound 1.168] |
| 639 | Clc1cccc(CN2CCC[C@H](Nc3ccc4[nH]ncc4c3)C2)c1 [Compound 1.170] |
| 111 | Cc1cccc(CN2CCC[C@@H](Nc3ccc4[nH]ncc4c3)C2)c1C [Compound 1.172] |
| 283 | c1cc2c(cc1CN1CCC[C@@H](Nc3ccc4[nH]ncc4c3)C1)OCCO2 [Compound 1.177] |
| 452 | CS(=O)(=O)c1cccc(CN2CCC[C@H](Nc3ccc4[nH]ncc4c3)C2)c1 [Compound 1.182] |
| 708 | Brc1cccc(CN2CCC[C@H](Nc3ccc4[nH]ncc4c3)C2)c1 [Compound 1.183] |
| 1020 | c1cc(C2CC2)ccc1CN1CCC[C@H](Nc2ccc3[nH]ncc3c2)C1 [Compound 1.185] |
| 260 | Clc1cccc(CN2CCC[C@@H](Nc3ccc4[nH]ncc4c3)C2)c1 [Compound 1.191] |

| concentration at 15 min [nM] | SMILES |
| --- | --- |
| 355 | CC(=O)NCc1cccc(CN2CCC[C@@H](Nc3ccc4[nH]ncc4c3)C2)c1 [Compound 1.194] |
| 643 | CN(c1cccc(CN2CCC[C@H](Nc3ccc4[nH]ncc4c3)C2)c1)S(C)(=O)=O [Compound 1.198] |
| 130 | c1cc(CN2CCC[C@@H](Nc3ccc4[nH]ncc4c3)C2)cc(C2CC2)c1 [Compound 1.202] |
| 1130 | CCOc1cccc(CN2CCC[C@@H](Nc3ccc4[nH]ncc4c3)C2)c1 [Compound 1.203] |
| 549 | CC(C)c1ccc(CN2CCC[C@@H](Nc3ccc4[nH]ncc4c3)C2)cc1 [Compound 1.204] |
| 281 | C=Cc1ccc(CN2CCC[C@@H](Nc3ccc4[nH]ncc4c3)C2)cc1 [Compound 1.208] |
| 286 | Brc1cccc(CN2CCC[C@@H](Nc3ccc4[nH]ncc4c3)C2)c1 [Compound 1.210] |
| 12.8 | OCc1ccc(CN2CCC[C@H](Nc3ccc4[nH]ncc4c3)C2)cc1 [Compound 1.223] |
| 526 | COc1ccc(CN2CCC[C@@H](Nc3ccc4[nH]ncc4c3)C2)cc1 [Compound 1.226] |
| 1860 | c1ccc(CN2CCC[C@H](Nc3ccc4[nH]ncc4c3)C2)cc1 [Compound 1.227] |
| 1450 | C=Cc1ccc(CN2CCC[C@H](Nc3ccc4[nH]ncc4c3)C2)cc1 [Compound 1.229] |
| 240 | COc1ccc(CN2CCC[C@H](Nc3ccc4[nH]ncc4c3)C2)cc1NS(C)(=O)=O [Compound 1.234] |
| 580 | Cc1ccc(CN2CC[C@@H](Nc3ccc4[nH]ncc4c3)C2)cc1 [Compound 1.242] |
| 1520 | COc1ccc(CN2CC[C@@H](Nc3ccc4[nH]ncc4c3)C2)cc1 [Compound 1.245] |
| 587 | c1cc2c(cc1CN1CCC[C@@H](Nc3ccc4[nH]ncc4c3)C1)CCO2 [Compound 1.246] |
| 503 | Clc1ccc(CN2CC[C@@H](Nc3cccc4cnccc34)C2)cc1 [Compound 2.027] |
| 665 | OCCOc1cccc(CN2CCC[C@@H](Nc3cccc4cnccc34)C2)c1 [Compound 2.034] |
| 1340 | OCCOc1cccc(CN2CCC[C@H](Nc3cccc4cnccc34)C2)c1 [Compound 2.036] |
| 60.8 | O=C(COc1cccc(CN2CC[C@@H](Nc3cccc4cnccc34)C2)c1)N1CCOCC1 [Compound 2.043] |
| 1260 | c1cc(N[C@@H]2CCN(Cc3ccc4c(c3)OCCO4)C2)c2ccncc2c1 [Compound 2.056] |
| 660 | Fc1ccc(CN2CC[C@@H](Nc3cccc4cnccc34)C2)cc1F [Compound 2.062] |
| 348 | CC(=O)NCc1cccc(CN2CC[C@@H](Nc3cccc4cnccc34)C2)c1 [Compound 2.063] |
